Here are results for two compounds from patent US10300029B2, “Organ protection solutions and method of use” (VIRGINIA COMMONWEALTH UNIVERSITY, priority 2011, dated 2019).

One series deals with shocked rodents. Briefly: Hemorrhagic shock model, low volume resuscitation with gluconate (Example 4). Format: in vivo. On the procedure:
Gluconate was administered in the organ protectant solution (e.g., a low volume resuscitation (LVR) solution with cell impermeants according to the present invention) in order to achieve a theoretical gluconate concentration of about 60 mM in the extracellular fluid compartment (subsequent experiments have shown that about 100 mM is probably optimal). The idea of low volume resuscitation is to give the shocked patient small volumes of intravenous fluids to prolong the time on the field to allow for rescue and transport to a forward hospital where more definitive resuscitation can occur (due to fewer resource limitations). The purpose of the addition of the cell impermeants to the LVR solution (usually saline) was to increase this “down time” further, effectively increasing the tolerance to the low flow state and making it more likely that the patient can survive the wait to the hospital. Essentially, the objective is to increase the “Golden Hour”.
In shock experiments, the time that the control animals could remain in the low volume state (after LVR administration) was 64 minutes. […] This means that these subjects were able to stay safely in the low volume state for much longer periods. In practical terms, they can wait longer for transport and full resuscitation, yet presumably have a higher chance of survival.

In a further series the test system is rodent capillaries. Further details: species or system rats. To be noted: rat, in vivo. The method, then:
FIG. 10A-D. A) Diagram showing the shock, resuscitation, and recovery protocol used for these studies. The low volume resuscitation (LVR) time is the time from the start of the low volume resuscitation (after the lactate during hemorrhagic shock reaches 9-10 mM) until the time after the LVR infusion when the lactate rises back up to 9-10 mM again. This immediately precedes full resuscitation. The LVR time is a measure of the tolerance to the low volume state and is a function of the microcirculatory effectiveness since it is dependent on the rate of change of the plasma lactate. […] The numbers on the x-axis are the corresponding lactate concentrations in the plasma at the end of the LVR period. Most are close to 10 mM because that was the definition of the end of the LVR period. […] D) The oncotic reflection coefficient (σd) for PEG-20k was measured in six rats to determine the impermeant and the oncotic effects of this molecule in both the mesenteric vascular bed and the thoracic bed. FITC-labeled PEG-20k was used as a tracer molecule and the reflection coefficient was determined by measuring the lymph (L) to plasma (P) concentrations of FITC-PEG after an IV injection of the tracer under conditions of high lymph flow induced by volume loading with I.V. saline infusions (0.25 ml/min). […] FITC-labelled PEG-20k was measured by excitation-emission spectrofluorometry. […]

In series [1] the test system is juvenile swine in hemorrhagic shock. The text has this: Saline control • b. […] Results
Setting [2] is: 24 hours after shock and resuscitation, vs controls.

Description for normal pig blood: The (A) PT-INR and (B) aPTT effects were determined in both normal pig blood after ex-vivo mixing with PEG-20k LVR solutions (10% dilution) or with a saline control, also at a 10% solution, and after the end of the LVR period in pigs given PEG-20k based LVR solutions.
Juvenile swine (35-40 kn) were anesthetized with Ketamine/Xylazine, and propofol induction followed by isofluorane inhalation anesthesia maintenance (1-2%). A swan-Ganz catheter was introduced into the pulmonary artery via a cut down of the right jugular vein for the continuous measurement of cardiac output, pulmonary artery pressures, and sVO2 (mixed venous O2 saturation) by an optical sensor on the PA catheter. Blood pressure and arterial blood gases were measured by a line in the femoral artery. A line in the carotid artery and contralateral jugular vein was used for bleeding and resuscitation, respectively. […]
Finally, coagulation was determined in both normal pig blood after ex-vivo mixing with PEG-20k LVR solutions (10% dilution) or with a saline control, also at a 10% solution, and after the end of the LVR period in pigs given PEG-20k based LVR solutions.

Take `O=C(O)[C@H](O)[C@@H](O)[C@H](O)[C@H](O)CO` [gluconate]: in the series with shocked rodents (setting [2]), the albumin result is recorded as “higher”, the liver enzymes entry is recorded as “lower” and the metabolic acidosis entry is on record as “less”. Further, the LVR time result with shocked rodents (gluconate added to LVR solution, theoretical about 60 mM in extracellular fluid) was “over 106 minutes”.
With polyethylene glycol 20,000 [PEG-20k], the “coagulation (PT-INR, aPTT), ex-vivo mixing test” value in the series with normal pig blood is reported as “not altered”. Further, the “capillary oncotic reflection coefficient” value in the series on rodent capillaries is “about 0.65”. Besides, the “coagulation (PT-INR, aPTT), in-vivo” value in series [1] is reported as “not altered”.
